Laboratory results as given in patent US12491203B2, “Use of mannose 6 phosphate and modifications thereof for memory enhancement and reducing memory impairment” (New York University, priority 2018, dated 2025).
“Also recorded” adds a separate entry of the source.

Tests used:
[1] = system: Ube3a-/+ (AS) mice; assay: novel object recognition (nOR) paradigm in mouse model of Angelman syndrome; assay type: in vivo
Protocol: (§1) FIG. 2. M6P reverses object recognition memory deficits in a mouse model of Angelman syndrome and enhances memory in WT mice. Experimental timelines are shown above graphs. In all experiments mice received a s.c. injection of vehicle or M6P (↑) 20 min before nOR training or testing. Percent exploration preference for a novel object compared to a familiar object during novel object recognition of WT (Control) and Ube3a−/+(AS) mice injected with vehicle or M6P (labeled as IGF-2R.L1), 20 min before training, tested at 4 h and 24 h after training. N=4/group. All data are expressed as the mean (±s.e.m.). Two-way analysis of variance (ANOVA) followed by Tukey post-hoc tests. *P<0.05, **P<0.01, ***P<0.001.
(§2) FIG. 6. PnM6P (L2) reverses object recognition memory deficits in a mouse model of Angelman syndrome. Experimental timeline is shown above graphs. Mice received a s.c. injection of either vehicle or 850 μg/Kg of phosphonate-M6P (PnM6P) called IGF-2R.L2 (or L2) (↑) 20 min before either training or testing. (A) Percent exploration preference for a novel object compared to a familiar object during the nOR paradigm of wild type (WT served as Control mice) and Ube3a−/+(AS) mice injected with vehicle or L2 before training, and tested at 4 h, 24 h and 5 days (5d) after training. N=4/group. Data are expressed as the % mean±s.e.m. (B). Total time spent exploring the 2 objects during the nOR training session of WT and AS mice injected with vehicle or L2 20 min before training. N=4/per group. […] Data are expressed in seconds (s). Two-way analysis of variance (ANOVA) followed by Bonferroni post-hoc tests. *P<0.05, **P<0.01, ***P<0.001.
Specifically, we used the novel object recognition (nOR) paradigm in mice to assess non-aversive episodic memory. In this task, the innate preference for novelty of the rodent is used. During training, the mouse is allowed to explore 2 identical objects. On test day, one of the training objects is replaced with a novel object. Because mice have an innate preference for novelty, if the mouse recognizes the familiar object, it will spend more time at the novel object.

[2] = system: normal (wild type, WT) mice; assay: novel object recognition (nOR) paradigm in normal (wild type) mice; assay type: in vivo, mouse
Protocol: FIG. 1. Dose-response curve of the effect of M6P, also called IGF2R.L1 (L1) on nOR in normal (wild type, WT) mice. Experimental timeline is shown above graphs. Data are expressed as the mean±s.e.m. N=4 per group. One-way analysis of variance (ANOVA) followed by Bonferroni post-hoc tests. *P<0.05, **P<0.01. WT mice were injected s.c. with vehicle solution or different doses of IGF2R.L1 (L1) 20 min prior to training on nOR. Graphs show percent exploration preference for the novel object compared to the familiar object at testing performed at 4 h and 24 h after training.
as §1
FIG. 4. An M6P derivative, phosphonate M6P (PnM6P), enhances memory in mice. Experimental timeline is shown above graphs. Mice received a s.c. injection of either vehicle or 850 μg/Kg of phosphonate-M6P (PnM6P) called IGF-2R.L2 (or L2) (↑) 20 min before training. (A) Percent exploration preference for a novel object compared to a familiar object during the nOR paradigm of mice injected with vehicle or L2 20 min before training, and tested at 24 h (Test 1), 5 days (Test 2) and 14 days (Test 3) after training. N=8-10/group. Data are expressed as the % mean±s.e.m. (B). Total time spent exploring both objects during the nOR training session of mice injected with vehicle or L2 20 min before training. N=4 per group. […] Data are expressed in seconds (s). Two-way analysis of variance (ANOVA) followed by Bonferroni post-hoc tests. *P<0.05, **P<0.01, ***P<0.001.
FIG. 5. Comparing M6P (L1) and PnM6P (L2) effects on memory retention: both L1 and L2 similarly enhance nOR in mice. Experimental timeline is shown above graphs. Mice received a s.c. injection of either vehicle or 850 μg/Kg of phosphonate-M6P (PnM6P) called IGF-2R.L2 (or L2) or 850 μg/Kg of M6P (IGF-2R.L1 or L1) (↑) 20 min before training. (A) Percent exploration preference for a novel object compared to a familiar object during the nOR paradigm of mice injected with vehicle, L2 or L1 20 min before training, and tested at 24 h (Test 1), 5 days (Test 2) and 14 days (Test 3) after training. N=4-10/group. Data are expressed as the % mean±s.e.m. (B). Total time spent exploring both objects during the nOR training session of mice injected with vehicle, L2 or L1 20 min before training. N=2-4 per group. […] Data are expressed in seconds (s). Two-way analysis of variance (ANOVA) followed by Bonferroni post-hoc tests. *P<0.05, **P<0.01, ***P<0.001.
as §2, with “Two-way analysis of variance (ANOVA) followed by Bonferroni post-hoc tests. *P<0.05, **P<0.01, ***P<0.001.” left out

[3] = system: adult rats; assay: inhibitory avoidance (IA) contextual fear memory task, intra-hippocampal injection; assay type: in vivo, rat; settings: for avoidance memory (latency) vs vehicle: bilateral intra-hippocampal injection immediately after training
Protocol: FIG. 3. M6P injected into the hippocampus of rats enhances memory: dose-response curve. Experimental timeline is shown above graph. Rats received a bilateral intra-hippocampal injection of vehicle or different doses of IGF-2R.L1 (M6P) (↑) immediately after training in the contextual fear memory task inhibitory avoidance (IA). Memory retention was then tested at 24 hours (T1) and 7 days (T2) after training. Testing measured the latency to enter the compartment in which the animals received a foot shock during training. N=12/group. All data are expressed as the mean (±s.e.m.). Two-way repeated measures analysis of variance (ANOVA) followed by Bonferroni post-hoc tests. *P<0.05, **P<0.01, ***P<0.001. […] In these experiments, adult rats were trained in the inhibitory avoidance (IA) paradigm. In this paradigm the animals learn to avoid a chamber paired with a foot-shock.

[4] = WT mice, 850 μg/Kg s.c. 20 min before training, tested 14 days after training

SMILES	nOR memory deficit reversal ([1]; 850 μg/Kg s.c. 20 min before training, tested 4 h after training (FIG. 6))	nOR memory vs vehicle ([1]; 850 μg/Kg s.c. 20 min before training, tested 24 h after training (FIG. 6))	nOR memory vs vehicle ([2]; WT mice, 850 μg/Kg s.c. 20 min before training, tested 4 h after training (FIG. 6))	nOR memory retention vs vehicle ([2]; WT mice, 850 μg/Kg s.c. 20 min before training, tested 24 h after training)	nOR memory retention vs vehicle ([2]; WT mice, 850 μg/Kg s.c. 20 min before training, tested 5 days after training)	nOR memory retention vs vehicle [2, 4]	nOR memory deficit reversal ([1]; s.c. injection 20 min before training, tested 4 h after training (FIG. 2))	nOR memory retention vs vehicle ([1]; s.c. injection 20 min before training, tested 24 h after training (FIG. 2))	nOR memory (exploration preference for novel object) vs vehicle ([2]; WT control mice, s.c. injection 20 min before training, tested 4 h after training (FIG. 2))	nOR memory retention vs vehicle ([2]; WT control mice, s.c. injection 20 min before training, tested 24 h after training (FIG. 2))	avoidance memory (latency) vs vehicle ([3]; retested 6 days later (7 days after training, T2))	avoidance memory (latency) vs vehicle ([3]; tested 1 day (24 h, T1) after training)	dose dependence of memory-enhancing effect ([3]; bilateral intra-hippocampal injection, different doses)
COC1OC(CCP(=O)(OCOC(=O)OC(C)C)OCOC(=O)OC(C)C)C(O)C(O)C1O [L2, Methyl 6-Deoxy-6-diisopropyloxycarbonyloxy-methyl-phosphinylmethyl-α-D-mannopyranoside]	reversed memory deficits in AS mice	significant memory in both groups	enhanced memory	significantly increased memory retention at both timepoints; also recorded: significant memory in both groups	significantly increased memory retention at both timepoints	memory enhancement was no longer seen; also recorded: returned to baseline	–	–	–	–	–	–	–
O=C[C@@H](O)[C@@H](O)[C@H](O)[C@H](O)COP(=O)(O)O [L1, mannose-6-phosphate]	–	–	–	–	–	returned to baseline	reversed memory deficits in AS mice	significantly increased memory retention in both groups	significant memory enhancement	significantly increased memory retention in both groups	effect persisted	significant increase in avoidance memory	dose dependent
